Reference: patent US20250128203A1, “MODIFIED REDOX-ACTIVE SORBENTS FOR ELECTROCHEMICAL CARBON DIOXIDE SEPARATION” (The Johns Hopkins University, priority 2023, published 2025)
≈ marks a conversion by molar mass, not a printed value. Where “and” joins values, the source holds several entries; their conditions need not be identical. Equal entries are not always repeated.

What was measured:
Solubility in DMF = format: physicochemical; conditions: for solubility: organic solvent or mixture
[1] = CO2 binding constant (KCO2) calculated from the shift of the second reduction peak in CV; conditions: for K[CO2] / logK[CO2]: DMF; for ΔEpeak(2): difference between the second reduction peak potentials (IId·−/IId2−) in CO2 and N2
Experimental: (§1) Electrochemical measurements were conducted using a BioLogic VSP potentiostat (BioLogic Science Instruments). For the cyclic voltammetry measurements, glassy carbon (Ø=3 mm) was used as the working electrode, platinum wire was used as the counter electrode, silver wire was used as the pseudo-reference electrode and ferrocene was used as the internal reference. In a standard cyclic voltammetry measurement, the molecule of interest (2.5 mM) was dissolved in anhydrous DMF with 100 mM NBu4PF6 as the supporting salt. Typical cyclic voltammograms were collected at a scan rate of […]. To study the effects of ionic species on the redox behaviour of the sorbent molecules, 100 mM LiClO4, NaClO4, KClO4, NBu4ClO4, sodium triflate (NaOTf), or sodium bis(trifluoromethanesulfonyl)imide (NaTFSI) was used as the supporting electrolyte salt.
The CO2 binding constant (KCO2) was calculated by Eq 1: […]

[2] = Cyclic voltammetry of isoindigos in DMF (half-wave redox potentials under N2 or CO2); format: physicochemical; conditions: for E1/2 in N2 (first): first half-wave potential vs. Fc^+/Fc; for E1/2 in N2 (first) / E1/2 in N2 (second): 0.1 M NBu4PF6, N2, 298 K; for E1/2 in N2 (second): second half-wave potential vs. Fc^+/Fc; for E1/2 in CO2 (first or single) / Experimental 1st half-wave potential in N2: vs. Fc^+/Fc; for E1/2 in CO2 (first or single): 0.1 M NBu4PF6, CO2, 298 K; for E1/2 (IId/IId·−) in N2: Table 1, first electron transfer, N2, DMF; for Experimental 1st half-wave potential in N2: Table 5
Experimental: as §1

[3] = Flow-based EMCC prototype, cyclic CO2 capture/release
Experimental: In a typical experiment, the sorbent tank (20 mL scintillation vial with septum cap) was continuously bubbled with CO2 feed gas (balanced by N2) with the flow rate controlled by a mass flow controller (Alicat). For testing under simulated flue gas conditions, a gas mixture of 10% CO2+3% O2 balanced by N2 was used. An infrared-based CO2 sensor (SprintIR-W 100%) was connected at the gas exit to monitor the CO2 concentration continuously. The tank headspace was filled with plastic beads (McMaster-Carr) to limit the mixing time in the headspace. The Fc tank was kept air free. A two-channel peristaltic pump (Masterflex) circulated the sorbent and the Fc electrolyte to a commercial flow cell (Scribner) at a flow rate of 10 mL min^−1. The flow cell utilised graphite plates with 5 cm^2 interdigitated flow fields pressed against two pieces of carbon paper electrodes (Sigracet 28 AA) at each side of the graphite electrodes to distribute the liquid flow. A Nafion™ 115 membrane was sandwiched by two pieces of polypropylene and placed between the carbon paper electrodes. The cell was kept sealed by Kalrez fluoropolymer elastomer gaskets (0.02 inches thick). CO2 capture was conducted in a constant current mode while the release was carried out following a constant current/constant voltage protocol (that is, oxidizing the adduct at a constant current until a specific cut-off voltage followed by a constant voltage hold (the cut-off current for the constant voltage hold was 5% of the value used in the constant current oxidation). The cycling protocols of each experiment are provided in the corresponding figure captions.
For experiments using 6MCIId sorbent, we added 10 mM 6MCIId and 4 mM ferrocenium tetrafluoroboronate (FcBF4) into the CE tank to mitigate sorbent crossover and facilitate the reduction of the oxidised ferrocenium in the counter electrolyte, respectively. For less soluble 55DBIId and 66DBIId, the sorbent was dispersed in DMAc to form a slurry catholyte.

[4] = UV-vis absorption, optical band gap; format: physicochemical; conditions: UV-vis absorption (Kubelka-Munk spectra)
Experimental: UV-vis absorption spectra were recorded on a Thermo Scientific Genesys 10S UV-vis spectrophotometer.

[5] = system: MCF10A human breast epithelial cells; test: alamarBlue cytotoxicity assay; format: cell-based; parameters: unit not given here; conditions: 48 h cell culture
Experimental: (§2) NIH3T3/GFP fibroblast cell line was kindly provided by Dr. Yun Chen at Johns Hopkins University and cultured in Dulbecco's Modified Eagle's Medium (DMEM; Gibco) supplemented with 10% fetal bovine serum (FBS; Hyclone) and 1% penicillin/streptomycin (Pen/Strep; Gibco). U2OS.EGFP cells were kindly provided by Dr. J Keith Joung at Massachusetts General Hospital and cultured in DMEM supplemented with 10% FBS, 2 mM GlutaMAX (Gibco), and 1% Pen/Strep. MCF10A epithelial cell line was kindly provided by Dr. Konstantinos Konstantopoulos at Johns Hopkins University and cultured in DMEM/F-12 (1:1) supplemented with 5% New Zealand horse serum (Gibco), 20 ng mL^−1 EGF (PeproTech), […] hydrocortisone (Sigma Aldrich), 100 ng mL^−1 cholera toxin (Sigma Aldrich), […] insulin (Gibco), and 1% Pen/Strep. All cells were cultured in a humidified incubator at 5% CO2 and 37° C.
(§3) Cell cytotoxicity was examined by alamarBlue HS Cell Viability Reagent (Invitrogen) according to manufacturer's protocol. Rampersad, 2012; Kumar et al., 2018. […] Absorbance was measured at 570 nm by a SpectraMax microplate reader, with 600 nm as a reference wavelength. The cell viability was calculated by relative absorbance to control groups. […] Cell morphology was monitored throughout the assay and images were acquired with an EVOS cell imaging system (Thermo Fisher).

[6] = system: NIH3T3/GFP mouse fibroblasts; test: alamarBlue cytotoxicity assay; format: cell-based; conditions: concentrations up to 100 µg mL^−1, 48 h
Experimental: as §2, §3

[7] = system: U2OS.EGFP human osteosarcoma cells; test: alamarBlue cytotoxicity assay; format: cell-based; conditions: concentrations up to 100 µg mL^−1, 48 h
Experimental: as §2, §3

mammalian cells = test: Cytotoxicity test and cell morphology, different mammalian cells; format: cell-based; parameters: dose or concentration left out as unconfirmed
Experimental: as §2, §3

[8] = Chronoamperometry: reaction rate constant between isoindigo radical anion and CO2; conditions: isoindigo 5 mM in DMF, 0.1 M NBu4PF6; for kbimolecular: first CO2 binding; for kf (20% CO2): forward rate constant
Excerpt: In electrochemistry, the Cottrell equation describes the current response (i) when the potential is a step function in time (t):
where i is current, n is the number of electrons transferred per molecule, A is the area of the electrode, C*0 is the bulk concentration of the redox-active isoindigo molecule, D is the diffusion coefficient, and t is time. The expected current for a diffusion limited electrochemical process following an ECE (electron transfer, chemical reaction, electron transfer) mechanism at a plane electrode under diffusion-controlled conditions is:
where n1 and n2 are the number of electrons transferred in the first and second step, respectively, and kf is the forward reaction rate constant of the chemical reaction. Here, to calculate kf after the first electron transfer, n2 and n1 are set to 1. Eq 3 then becomes:
The integrated Cottrell equation relates total charge Q with time for chronoamperometry: […]
Then, the constant k can be calculated, here k is assumed constant:
To calculate kf, the constant k is calculated using Eq 5 using potentiostatic measurements. Plugging in Eq 6, and rearranging Eq 4 gives:
The data for determining kf is shown in FIGS. 22 to 25 using 5 mM sorbent molecules in 0.1 M NBu4PF6 DMF electrolyte. The value k was determined using data under N2; kf was obtained under 1 bar 20% CO2 (0.0396 M CO2 in solution).

| Compound | Solubility in DMF (Solubility in DMF) | K[CO2] ([1]; 298 K) | logK[CO2] ([1]; 298 K) | ΔEpeak(2) [1] | E1/2 in N2 (first) ([2]; 2.5 mM in DMF) | E1/2 in N2 (second) ([2]; 2.5 mM in DMF) | E1/2 in CO2 (first or single) ([2]; 2.5 mM in DMF) | Optical band gap [4] | solubility (Solubility in DMF) | logK[CO2] ([1]; Table 1) | E1/2 (IId/IId·−) in N2 [2] | Experimental 1st half-wave potential in N2 [2] | kbimolecular [8] | kf (20% CO2) [8] | other results |
| --- | --- | --- | --- | --- | --- | --- | --- | --- | --- | --- | --- | --- | --- | --- | --- |
| O=C1Nc2ccccc2/C1=C1\C(=O)Nc2ccccc21 [IId, Isoindigo] | – | 2.19e+09 M⁻¹ | 9.34 | 0.511 V | −1.29 V and −1.29, V | −1.79 V | −1.21 V | 2.04 eV | ~230 mM (≈ 60.3 mg/mL) | 9.34 | −1.29 V vs. Fc^+/Fc | −1.29 V | – | – | – |
| Methyl isoindigo-6-carbonylserinate [6AIIdSer] | – | – | – | – | – | – | – | – | – | – | – | – | – | – | LC50 (lethal concentration that causes 50% cell death) [5]: 89.4; Toxicity [6]: does not display clear toxicity; Toxicity [7]: does not display clear toxicity |
| COC(=O)C(CO)NC(=O)c1ccc2c(c1)NC(=O)/C2=C1/C(=O)Nc2ccccc21 (stereo not shown) [6AIIdSer, Methyl isoindigo-6-carbonylserinate] | 830 mM (≈ 338 mg/mL) | 2.57e+08 M⁻¹ | 8.41 | 0.46 V | −1.18, V | −1.60 V | −1.08 V | 2.04 eV | – | – | – | – | – | – | Biocompatibility compared with unmodified counterpart (mammalian cells; 0.78 to 100, 48 h): much better biocompatibility; Cell condition in optical microscopic images, compared with IId (mammalian cells; 50, 48 h culture): cells remained much healthier |
| COC(=O)CNC(=O)c1ccc2c(c1)NC(=O)/C2=C1/C(=O)Nc2ccccc21 [6AIIdGly, Methyl isoindigo-6-carbonylglycinate] | 606 mM (≈ 229 mg/mL) | 4.3e+08 M⁻¹ | 8.63 | 0.469 V | −1.17, V | −1.62 V | −1.08 V | 2.04 eV | – | – | – | – | 19.85 M⁻¹ s⁻¹ | 0.786 s⁻¹ | – |
| COC(=O)c1ccc2c(c1)NC(=O)/C2=C1/C(=O)Nc2ccccc21 [6MCIId, Methyl isoindigo-6-carboxylate] | – | 7.78e+08 M⁻¹ | 8.89 | 0.484 V | −1.12, V | −1.62 V | −1.09 V | 2.03 eV | 515 mM (≈ 165 mg/mL) | 8.89 | −1.12 V vs. Fc^+/Fc | – | 22.45 M⁻¹ s⁻¹ | 0.889 s⁻¹ | – |

The next lines start with results.

| Solubility in DMF (Solubility in DMF) | K[CO2] ([1]; 298 K) | logK[CO2] ([1]; 298 K) | ΔEpeak(2) [1] | E1/2 in N2 (first) ([2]; 2.5 mM in DMF) | E1/2 in N2 (second) ([2]; 2.5 mM in DMF) | E1/2 in CO2 (first or single) ([2]; 2.5 mM in DMF) | Optical band gap [4] | solubility (Solubility in DMF) | logK[CO2] ([1]; Table 1) | E1/2 (IId/IId·−) in N2 [2] | Experimental 1st half-wave potential in N2 [2] | Compound | kbimolecular [8] | kf (20% CO2) [8] | other results |
| --- | --- | --- | --- | --- | --- | --- | --- | --- | --- | --- | --- | --- | --- | --- | --- |
| 568 mM (≈ 276 mg/mL) | 5.41e+08 M⁻¹ | 8.73 | 0.475 V | −1.11, V | −1.55 V | −1.11 V | 2.03 eV | – | – | – | – | COC(=O)C(CO)NC(=O)c1ccc2c(c1)NC(=O)/C2=C1/C(=O)Nc2cc(Br)ccc21 (stereo not shown) [6B6AIIdSer, Methyl 6-bromoisoindigo-6′-carbonylserinate] | – | – | Cycling stability ([3]; more than 40 cycles and approximately 200 hours of operation): negligible voltage decay |
| <2.5 mM | 1.17e+08 M⁻¹ | 8.07 | 0.435 V | −0.97, V | −1.41 V | −0.91 V | 2.02 eV | < 2.5 mM | – | – | – | COC(=O)c1ccc2c(c1)NC(=O)/C2=C1/C(=O)Nc2cc(C(=O)OC)ccc21 [66DMCIId, Dimethyl isoindigo-6,6′-dicarboxylate] | – | – | Positive shift of E1/2 under CO2 compared to unmodified IId ([2]; under CO2, DMF): 300 mV |
| – | 38800 M⁻¹ | 9.59 | 0.525 V | – | −1.67 V | −1.12 V | 2.06 eV | – | 9.59 | −1.14 V vs. Fc^+/Fc | −1.14 V | O=C1Nc2cc(Br)ccc2/C1=C1\C(=O)Nc2cc(Br)ccc21 [66DBIId, 6,6′-Dibromoisoindigo] | 18.64 M⁻¹ s⁻¹ | 0.738 s⁻¹ | Sorbent recovered from the sorbent electrolyte after cycling ([3]; after 11 capture/release cycles over 50+ hours): 87%; Sorbent isomerized into cis-isomer after cycling ([3]; after 11 capture/release cycles over 50+ hours, 1H NMR): approximately 24% |
| – | 2.16e+09 M⁻¹ | 9.33 | 0.510 V | −1.09 V and −1.09, V | −1.61 V | −1.09 V | 1.99 eV | 6.3 mM (≈ 2.65 mg/mL) | 9.33 | −1.09 V vs. Fc^+/Fc | −1.09 V | O=C1Nc2ccc(Br)cc2/C1=C1\C(=O)Nc2ccc(Br)cc21 [55DBIId, 5,5′-Dibromoisoindigo] | – | – | CO2 release at approximately −1 V vs. Fc^+/Fc in the presence of water ([2]; 10 vol % water): gets suppressed; Electrochemical behaviours in the presence of O2 ([2]; up to 16% CO2 and 20% O2, 2.5 mM in DMF, 0.1 M NBu4PF6): remained almost unaffected |
